In experiment [1] the test system is cellular pERK in Kuramochi (WT KRAS) cell-line. In words: Cell based pERK assay, Kuramochi. The settings on record: Kuramochi (WT KRAS) cells, 2 hours compound incubation, HTRF Phospho-ERK1/2. As to the method:
(§1) Compounds were tested in a 384-well assay format for their ability to inhibit cellular pERK in Kuramochi (WT KRAS), MIA-PaCa-2 (KRAS-G12C), ASPC-1 (KRAS G12D), and NCI-H441 (KRAS-G12V) cell-lines. Compounds were serially diluted (1:3) in DMSO. On day −1, 80 μL of cells were plated per well in the 384 well tissue-culture plates (Greiner: Cat #781080) to seed 5000 cells per wells of AsPC-1 or 7500 cells of MIA-PaCa-2, NCI-H441, and Kuramochi cell lines in RPMI (Corning: Cat #10-040-CM) with 10% fetal bovine serum (FBS) (HyClone: Cat #SH30071-03) and IX penicillin-streptomycin-glutamate (PSG) (Corning: Cat #30-009-C1) for […] and Kuramochi cell lines and DMEM (Corning: Cat #15-018-CM) with 10% FBS and 1×PSG for MIA-PaCa-2 cell line. The plates were then incubated overnight at 37° C. and 5% CO2. On day 0, 400 nL of compound/well was added into the cell plates and mixed 5 times by pipetting using a Beckmann Biomek FX. The cell plates were then incubated for 2 hours at 37° C. and 5% CO2. HTRF Advanced Phospho-ERK1/2 (THR202/TYR204) Detection Kits (PerkinElmer: Cat #64AERPEG) were used to prepare the lysis and detection solution according to manufacturer protocol. Following the 2 hour incubation, 70 μL of medium was aspirated from the plates and 10 μL of lysis and detection solution was added to the plates using a Biotek EL406 washer and dispenser. Plates were sealed and stored overnight at room temperature. HTRF ratio (665 nm/615 nm) was read by Envision multimode reader (PerkinElmer) the next day. The TR-FRET ratios were normalized to a positive (saturating concentration of known inhibitor) and negative (DMSO) control and plotted against the log of compound concentration.
For orientation: Time-resolved FRET reads energy transfer from a long-lived donor to a nearby acceptor.

Another experiment addresses GDP-loaded KRAS-G12D (Homo sapiens, UniProt P01116, G12D). In words: KRAS (GDP) biochemical TR-FRET probe displacement assay, G12D. The format is binding. The settings on record: 2 hours at room temperature. The procedure:
(§2) • Compounds were tested for binding to GDP-loaded wild-type KRAS (WT), KRAS-G12C, KRAS-G12D, and KRAS-G12V in a 384-well assay format using a TR-FRET probe displacement assay in buffer consisting of 50 mM Hepes (pH 7.4), 150 mM NaCl. 5 mM MgCl2 and 0.005% Tween-20. 0.03 nM KRAS was used in this assay with 0.02 nM Eu-streptavidin and 12 nM Cy-5 labelled probe. Compounds were serially diluted (1:3) in DMSO. The LabCyte ECHO Acoustic dispenser was used to pre-spot the assay plates (384-well Non-Binding Surface plates, Corning, Catalog #3824) with 50 nL of compound. 5 μL of 2× enzyme concentration was added to the pre-spotted plates and incubated for 30 minutes before adding 5 μL of 2× concentration of Eu-streptavidin and Cy-5 labelled probe (10 μL final reaction volume). The plates were incubated at room temperature for 2 hours before measuring TR-FRET ratio (665 nm/615 nm) on the Envision multimode plate reader. The ratios were normalized to a positive (saturating concentration of known inhibitor) and negative (DMSO) control and plotted against the log of compound concentration. […]

Experiment [2] concerns the target GDP-loaded wild-type KRAS (WT) (Homo sapiens, UniProt P01116). Kind of experiment: KRAS (GDP) biochemical TR-FRET probe displacement assay, WT. Format: binding. The note with it: 2 hours at room temperature. The procedure: as §2
The target in a further experiment is GDP-loaded KRAS-G12V (Homo sapiens, UniProt P01116, G12V). Kind of experiment: KRAS (GDP) biochemical TR-FRET probe displacement assay, G12V. The format is binding. The settings on record: 2 hours at room temperature. The procedure:
as §2

In experiment [3] the test system is cellular pERK in ASPC-1 (KRAS G12D) cell-line. Kind of experiment: Cell based pERK assay, ASPC-1. The settings on record: ASPC-1 (KRAS G12D) cells, 2 hours compound incubation, HTRF Phospho-ERK1/2. The procedure:
as §1

The target in a further experiment is GDP-loaded KRAS-G12C (Homo sapiens, UniProt P01116, G12C). In words: KRAS (GDP) biochemical TR-FRET probe displacement assay, G12C. Format: binding. The settings on record: 2 hours at room temperature. The procedure: as §2
Experiment [4] deals with cellular pERK in MIA-PaCa-2 (KRAS-G12C) cell-line. Kind of experiment: Cell based pERK assay, MIA-PaCa-2. The settings on record: Homo sapiens; MIA-PaCa-2 (KRAS-G12C) cells, 2 hours compound incubation, HTRF Phospho-ERK1/2; read-out: MIAPaCa2 pERK EC50. The procedure:
as §1

The test system of experiment [5] is cellular pERK in NCI-H441 (KRAS-G12V) cell-line. In words: Cell based pERK assay, NCI-H441. The settings on record: Homo sapiens; NCI-H441 (KRAS-G12V) cells, 2 hours compound incubation, HTRF Phospho-ERK1/2. As to the method: as §1

Where two headings read alike, the source gives them in different places.

GDP-loaded wild-type KRAS (WT), sequence (P01116 1-188 isoform P01116-2): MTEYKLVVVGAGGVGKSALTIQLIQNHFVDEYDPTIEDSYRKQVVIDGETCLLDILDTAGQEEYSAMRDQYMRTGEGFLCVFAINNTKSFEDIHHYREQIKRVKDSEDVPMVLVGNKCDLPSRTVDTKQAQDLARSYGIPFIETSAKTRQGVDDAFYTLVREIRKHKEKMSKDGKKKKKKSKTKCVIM
GDP-loaded KRAS-G12V, sequence (P01116 1-188 isoform P01116-2 G12V): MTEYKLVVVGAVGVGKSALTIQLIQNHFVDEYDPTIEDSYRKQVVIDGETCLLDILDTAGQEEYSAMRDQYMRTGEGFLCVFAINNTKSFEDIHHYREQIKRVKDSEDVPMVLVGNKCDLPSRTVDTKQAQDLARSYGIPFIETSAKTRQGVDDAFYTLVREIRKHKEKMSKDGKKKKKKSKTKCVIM
GDP-loaded KRAS-G12C, sequence (P01116 1-188 isoform P01116-2 G12C): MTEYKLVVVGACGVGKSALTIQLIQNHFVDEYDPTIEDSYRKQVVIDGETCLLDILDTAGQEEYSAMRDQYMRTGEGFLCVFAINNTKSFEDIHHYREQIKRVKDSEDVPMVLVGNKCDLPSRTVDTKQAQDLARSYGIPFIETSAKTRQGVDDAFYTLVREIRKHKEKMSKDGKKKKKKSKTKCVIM
GDP-loaded KRAS-G12D, sequence (P01116 1-188 isoform P01116-2 G12D): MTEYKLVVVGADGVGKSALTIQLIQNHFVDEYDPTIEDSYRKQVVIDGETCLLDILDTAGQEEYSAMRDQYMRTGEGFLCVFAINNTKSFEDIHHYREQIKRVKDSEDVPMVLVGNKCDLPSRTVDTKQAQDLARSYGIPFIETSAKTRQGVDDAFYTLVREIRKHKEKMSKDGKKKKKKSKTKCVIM

Take `N#Cc1c(N)sc2c(F)ccc(-c3c(Cl)cc4c(N5CC6(F)CCC(F)(C5)N6)nc(OC[C@@]56CCCN5C[C@H](F)C6)nc4c3F)c12` (single isomer, unassigned) [Example 8-1]: the EC50 (commonly the concentration that produces a half-maximal response) in experiment [1] was determined as 2.57 nM; in experiment [3] (read-out: AsPC1 pERK EC50), 25.3 nM. For the same molecule, the IC50 (commonly the point on the concentration scale where inhibition reaches its midpoint) on GDP-loaded KRAS-G12D was found to be 1.46 nM; in experiment [2] it was 0.13 nM; on GDP-loaded KRAS-G12V, 1 nM; at GDP-loaded KRAS-G12C, 1.03 nM.
`N#Cc1c(N)sc2c(F)ccc(-c3c(Cl)cc4c(N5CC6(F)CCC(F)(C5)N6)nc(OC[C@@]56CCCN5C[C@H](F)C6)nc4c3F)c12` (single isomer, unassigned) [Example 8-2]: the EC50 in experiment [1] was 79.8 nM; in experiment [4], 65.4 nM; in experiment [5] it was 256 nM; in experiment [3] (read-out: AsPC1 pERK EC50) it was 614 nM. For the same molecule, the IC50 on GDP-loaded KRAS-G12D stood at 43 nM; in experiment [2] it was 3.31 nM; at GDP-loaded KRAS-G12V, 50.1 nM; on GDP-loaded KRAS-G12C, 23.3 nM.
As for `C#Cc1c(F)ccc2cc(O)cc(-c3c(F)cc4c(N5CC6(F)CCC(F)(C5)N6)nc(OC[C@@]56CCCN5C[C@H](F)C6)nc4c3F)c12` (single isomer, unassigned) [Example 9-1], the EC50 was determined as 4.25 nM in experiment [1] and 6.2 nM in experiment [3] (read-out: AsPC1 pERK EC50). For the same molecule, the IC50 came to 0.32 nM on GDP-loaded KRAS-G12D, 0.18 nM in experiment [2], 0.19 nM on GDP-loaded KRAS-G12V and 0.17 nM at GDP-loaded KRAS-G12C.
`C#Cc1c(F)ccc2cc(O)cc(-c3c(F)cc4c(N5CC6(F)CCC(F)(C5)N6)nc(OC[C@@]56CCCN5C[C@H](F)C6)nc4c3F)c12` (single isomer, unassigned) [Example 9-2]: the EC50 in experiment [1] and in experiment [3] (read-out: AsPC1 pERK EC50) was greater than 1000 nM each time. For the same molecule, the IC50 is 97.8 nM at GDP-loaded KRAS-G12D, 66.3 nM in experiment [2] and 72.6 nM at GDP-loaded KRAS-G12V.
Turning to `C#Cc1c(F)ccc2cc(O)cc(-c3ncc4c(N5C[C@]6(F)CC[C@](F)(C5)N6)nc(OC[C@@]56CCCN5C[C@H](F)C6)nc4c3F)c12` [Example 1-1, 4-(4-((1R,5S)-1,5-difluoro-3,8-diazabicyclo[3.2.1]octan-3-yl)-8-fluoro-2-(((2R,7aS)-2-fluorotetrahydro-1H-pyrrolizin-7a(5H)-yl)methoxy)pyrido[4,3-d]pyrimidin-7-yl)-5-ethynyl-6-fluoronaphthalen-2-ol], the EC50 in experiment [1] (2 h) worked out at 1.19 nM; in experiment [4] it was 0.16 nM; in experiment [5], 0.83 nM; in experiment [3] (Homo sapiens, ASPC1, 2 h), 4.11 nM. The IC50 on GDP-loaded KRAS-G12D was found to be 0.14 nM; in experiment [2] it was 0.08 nM; on GDP-loaded KRAS-G12V, 0.11 nM; on GDP-loaded KRAS-G12C, 0.1 nM.
For `C#Cc1c(F)ccc2cccc(-c3ncc4c(N5CC6(F)CCC(F)(C5)N6)nc(OC[C@@]56CCCN5C[C@H](F)C6)nc4c3F)c12` [Example 1-2], the EC50 in experiment [1] (2 h) was found to be 11.9 nM; in experiment [4] it was 32.2 nM; in experiment [5], 66 nM; in experiment [3] (Homo sapiens, ASPC1, 2 h), 194 nM. Also, the IC50 on GDP-loaded KRAS-G12D was no less than 100 nM; in experiment [2], 26.6 nM; on GDP-loaded KRAS-G12V, 84 nM; at GDP-loaded KRAS-G12C it was 38 nM.
As to `C#Cc1c(F)ccc2cc(O)cc(-c3ncc4c(N5C[C@]6(F)CC[C@](F)(C5)N6)nc(OCC56CCCN5CCC6)nc4c3F)c12` [Example 2-1, 4-(4-((1R,5S)-1,5-difluoro-3,8-diazabicyclo[3.2.1]octan-3-yl)-8-fluoro-2-((tetrahydro-1H-pyrrolizin-7a(5H)-yl)methoxy)pyrido[4,3-d]pyrimidin-7-yl)-5-ethynyl-6-fluoronaphthalen-2-ol], the EC50 was 11.5 nM in experiment [1] (2 h); 6.9 nM in experiment [4]; 17.9 nM in experiment [5]; 71.1 nM in experiment [3] (Homo sapiens, ASPC1, 2 h).
Regarding `C#Cc1c(F)ccc2cc(O)cc(-c3ncc4c(N5CC6(F)CCC(F)(C5)N6)nc(OC[C@@]56CCCN5[C@H](COc5cc(C(F)(F)F)ncn5)CC6)nc4c3F)c12` [Example 2-3], the EC50 in experiment [1] (2 h) was found to be 2.55 nM; in experiment [4], 0.19 nM; in experiment [5], 2.07 nM; in experiment [3] (Homo sapiens, ASPC1, 2 h) it was 2.15 nM. Further, the IC50 came out at 0.55 nM on GDP-loaded KRAS-G12D, 0.29 nM in experiment [2], 0.42 nM on GDP-loaded KRAS-G12V and 0.4 nM on GDP-loaded KRAS-G12C.
In the case of `C#Cc1c(F)ccc2cc(O)cc(-c3ncc4c(N5CC6(F)CCC(F)(C5)N6)nc(OC[C@@]56CCCN5[C@H](COc5cc(C(F)(F)F)cnn5)CC6)nc4c3F)c12` [Example 2-4], the EC50 was determined as 5.56 nM in experiment [1] (2 h); 0.29 nM in experiment [4]; 9.86 nM in experiment [5]; 14.9 nM in experiment [3] (Homo sapiens, ASPC1, 2 h). Also, the half-maximal inhibitory concentration (IC50) was found to be 0.36 nM on GDP-loaded KRAS-G12D, 0.21 nM in experiment [2], 0.24 nM on GDP-loaded KRAS-G12V and 0.27 nM at GDP-loaded KRAS-G12C.
As for `C#Cc1c(F)ccc2cccc(-c3ncc4c(N5C[C@]6(F)CC[C@](F)(C5)N6)nc(OCC56CCCN5CCC6)nc4c3F)c12` [Example 3-1, 4-((1R,5S)-1,5-difluoro-3,8-diazabicyclo[3.2.1]octan-3-yl)-7-(8-ethynyl-7-fluoronaphthalen-1-yl)-8-fluoro-2-((tetrahydro-1H-pyrrolizin-7a(5H)-yl)methoxy)pyrido[4,3-d]pyrimidine], the EC50 was 8.71 nM in experiment [1] (2 h); 38.4 nM in experiment [4]; 117 nM in experiment [5]; 368 nM in experiment [3] (Homo sapiens, ASPC1, 2 h).
For `CCc1c(F)ccc2cc(O)cc(-c3ncc4c(N5CC6(F)CCC(F)(C5)N6)nc(OC[C@@]56CCCN5C[C@H](F)C6)nc4c3F)c12` [Example 4-1, 4-(4-((1R,5S)-1,5-difluoro-3,8-diazabicyclo[3.2.1]octan-3-yl)-8-fluoro-2-(((2R,7aS)-2-fluorotetrahydro-1H-pyrrolizin-7a(5H)-yl)methoxy)pyridol[4,3-d]pyrimidin-7-yl)-5-ethyl-6-fluoronaphthalen-2-ol], in that order: 1.35 nM, 2.22 nM, 4.7 nM and 11.9 nM.
With `CCc1c(F)ccc2cccc(-c3ncc4c(N5CC6(F)CCC(F)(C5)N6)nc(OC[C@@]56CCCN5C[C@H](F)C6)nc4c3F)c12` [Example 4-2], the EC50 in experiment [1] (2 h) worked out at 53.3 nM; in experiment [4] it was 301 nM; in experiment [5] it was 507 nM; in experiment [3] (Homo sapiens, ASPC1, 2 h) it was 1030 nM.
For `Fc1ccc2nc(C(F)(F)F)c(-c3c(F)cc4c(N5CC6(F)CCC(F)(C5)N6)nc(OC[C@@]56CCCN5C[C@H](F)C6)nc4c3F)n2c1` [Example 6-3], the IC50 (on GDP-loaded KRAS-G12D; in experiment [2]; at GDP-loaded KRAS-G12V; at GDP-loaded KRAS-G12C) was greater than 100 nM throughout.
With `Cc1c(F)c(N)cc(-c2ncc3c(N4CC5(F)CCC(F)(C4)N5)nc(OC[C@@]45CCCN4C[C@H](F)C5)nc3c2F)c1C(F)(F)F` [Example 6-4], the EC50 came out at 11.3 nM in experiment [1] (2 h) and 449 nM in experiment [3] (Homo sapiens, ASPC1, 2 h). The IC50 is greater than 100 nM at GDP-loaded KRAS-G12D, 17.3 nM in experiment [2], 21.6 nM at GDP-loaded KRAS-G12V and 20.1 nM on GDP-loaded KRAS-G12C.

Values taken from patent US20250059208A1, “KRAS MODULATING COMPOUNDS” (priority 2023, published 2025).
